The structures appear in SMILES notation. pIC50, pKi: −log10 of the molar value.

The source of these data is patent US8759361B2, “2-phenoxy pyrimidinone analogues” (Neurogen Corporation, priority 2006, dated 2014).

The target in one assay is T1, human capsaicin receptor (Homo sapiens, UniProt Q8NER1).
T1 construct: expressed in transfected cells
The experiment in a line: Calcium mobilization assay, determination of antagonist activity (Example 6). As to conditions: cells expressing human capsaicin receptor, capsaicin-induced fluorescence response; read-out: IC50. It counts as cell-based. The method, then:
A cDNA encoding full length human capsaicin receptor (SEQ ID NO:1, 2 or 3 of U.S. Pat. No. 6,482,611) is subcloned in the plasmid pBK-CMV (Stratagene, La Jolla, Calif.) for recombinant expression in mammalian cells.
Human embryonic kidney (HEK293) cells are transfected with the pBK-CMV expression construct encoding the full length human capsaicin receptor using standard methods. The transfected cells are selected for two weeks in media containing G418 (400 μg/ml) to obtain a pool of stably transfected cells. Independent clones are isolated from this pool by limiting dilution to obtain clonal stable cell lines for use in subsequent experiments.
Cells transfected with expression plasmids (as described in Example 4) and thereby expressing human capsaicin receptor are seeded and grown to 70-90% confluency in FALCON black-walled, clear-bottomed 96-well plates (#3904, BECTON-DICKINSON, Franklin Lakes, N.J.). The culture medium is emptied from the 96 well plates and FLUO-3 AM calcium sensitive dye (Molecular Probes, Eugene, Oreg.) is added to each well (dye solution: 1 mg FLUO-3 AM, 440 μL DMSO and 440 μl 20% pluronic acid in DMSO, diluted 1:250 in Krebs-Ringer HEPES (KRH) buffer (25 mM HEPES, 5 mM KCl, 0.96 mM NaH2PO4, 1 mM MgSO4, 2 mM CaCl2, 5 mM glucose, 1 mM probenecid, pH 7.4), 50 μl diluted solution per well). Plates are covered with aluminum foil and incubated at 37° C. for 1-2 hours in an environment containing 5% CO2. After the incubation, the dye is emptied from the plates, and the cells are washed once with KRH buffer, and resuspended in KRH buffer.
To measure the ability of a test compound to agonize or antagonize a calcium mobilization response in cells expressing capsaicin receptors to capsaicin or other vanilloid agonist, the EC50 of the agonist capsaicin is first determined. An additional 20 μl of KRH buffer and 1 μl DMSO is added to each well of cells, prepared as described above. 100 μl capsaicin in KRH buffer is automatically transferred by the FLIPR instrument to each well. Capsaicin-induced calcium mobilization is monitored using either FLUOROSKAN ASCENT (Labsystems; Franklin, Mass.) or FLIPR (fluorometric imaging plate reader system; Molecular Devices, Sunnyvale, Calif.) instruments. Data obtained between 30 and 60 seconds after agonist application are used to generate an 8-point concentration response curve, with final capsaicin concentrations of 1 nM to 3 μM. KALEIDAGRAPH software (Synergy Software, Reading, Pa.) is used to fit the data to the equation: y=a*(1/(1+(b/x)^c)) to determine the 50% excitatory concentration (EC50) for the response. In this equation, y is the maximum fluorescence signal, x is the concentration of the agonist or antagonist (in this case, capsaicin), a is the Emax, b corresponds to the EC50 value and c is the Hill coefficient. Determination of Agonist Activity
Test compounds are dissolved in DMSO, diluted in 20 μl KRH buffer so that the final concentration of test compounds in the assay well is between 1 μM and 5 μM, and added to cells prepared as described above. The 96 well plates containing prepared cells and test compounds are incubated in the dark, at room temperature for 0.5 to 6 hours. It is important that the incubation not continue beyond 6 hours. Just prior to determining the fluorescence response, 100 μl capsaicin in KRH buffer at twice the EC50 concentration determined as described above is automatically added by the FLIPR instrument to each well of the 96 well plate for a final sample volume of 200 μl and a final capsaicin concentration equal to the EC50. The final concentration of test compounds in the assay wells is between 1 μM and 5 μM. […] The concentration of antagonist required to provide a 50% decrease, relative to the response observed in the presence of capsaicin and without antagonist, is the IC50 for the antagonist, and is preferably below 1 micromolar, 100 nanomolar, 10 nanomolar or 1 nanomolar.
In general terms: A change in cytosolic calcium serves as a functional read-out for many receptors and channels.

A further assay has as its target VR (Homo sapiens, UniProt Q8NER1). As to conditions: binds to VR with no more than moderate affinity; cited from earlier work.

T1 sequence (Q8NER1 whole entry): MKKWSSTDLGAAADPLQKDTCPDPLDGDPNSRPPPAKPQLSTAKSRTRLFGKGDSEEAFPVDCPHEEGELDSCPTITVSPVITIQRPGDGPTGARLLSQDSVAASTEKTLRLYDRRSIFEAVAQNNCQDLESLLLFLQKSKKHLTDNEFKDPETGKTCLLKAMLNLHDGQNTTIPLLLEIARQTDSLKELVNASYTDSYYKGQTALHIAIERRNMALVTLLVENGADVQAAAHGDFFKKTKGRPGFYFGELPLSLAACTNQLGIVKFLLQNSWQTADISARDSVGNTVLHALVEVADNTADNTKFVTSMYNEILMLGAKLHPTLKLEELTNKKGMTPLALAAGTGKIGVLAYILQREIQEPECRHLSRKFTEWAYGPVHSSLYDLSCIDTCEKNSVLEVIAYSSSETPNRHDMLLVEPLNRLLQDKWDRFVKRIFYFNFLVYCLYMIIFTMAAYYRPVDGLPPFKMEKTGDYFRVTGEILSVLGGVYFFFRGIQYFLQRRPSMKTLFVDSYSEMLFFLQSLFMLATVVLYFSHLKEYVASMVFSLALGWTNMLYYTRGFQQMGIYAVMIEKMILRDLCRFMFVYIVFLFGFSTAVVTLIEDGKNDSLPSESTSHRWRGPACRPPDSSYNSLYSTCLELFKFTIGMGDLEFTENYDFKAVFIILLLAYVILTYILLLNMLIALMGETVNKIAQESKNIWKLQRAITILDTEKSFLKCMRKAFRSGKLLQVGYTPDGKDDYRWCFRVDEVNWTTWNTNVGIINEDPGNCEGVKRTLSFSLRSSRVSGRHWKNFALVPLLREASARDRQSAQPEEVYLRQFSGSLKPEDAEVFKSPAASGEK
VR, sequence (Q8NER1 whole entry): as above

Broadly, the pIC50 is the negative decadic logarithm of the IC50, by convention in mol/L. With `Cn1cnc2c(=O)n(-c3ccc(F)cc3)c(Oc3cccc(C(F)(F)F)c3F)nc21` [Compound 43, 1-(4-fluorophenyl)-2-[2-fluoro-3-(trifluoromethyl)phenoxy]-9-methyl-1,9-dihydro-6H-purin-6-one], the pIC50 at human capsaicin receptor is at least 7.00.

`O=c1c2ncsc2nc(Oc2cc(F)cc(C(F)(F)F)c2)n1-c1ccc(F)cc1` [Compound 44, 6-(4-fluorophenyl)-5-[3-fluoro-5-(trifluoromethyl)phenoxy][1,3]thiazolo[5,4-d]pyrimidin-7(6H)-one]: the pIC50 on human capsaicin receptor is at least 7.00.

Take `O=c1c2ncsc2nc(Oc2cccc(C(F)(F)F)c2)n1-c1ccc(F)cc1` [Compound 46, 6-(4-fluorophenyl)-5-(3-(trifluoromethyl)phenoxy)thiazolo[5,4-d]pyrimidin-7(6H)-one]: the pIC50 on human capsaicin receptor is at least 7.00.

Take `Cn1cnc2c(=O)n(-c3ccc(F)cc3)c(Oc3cccc(C(F)(F)F)c3)nc21` [Compound 48, 1-(4-fluorophenyl)-9-methyl-2-[3-(trifluoromethyl)phenoxy]-1,9-dihydro-6H-purin-6-one]: on human capsaicin receptor, the negative-log IC50 (pIC50) was at least 7.00.

In the case of `Cn1cnc2c(=O)n(-c3ccc(F)cc3)c(Oc3cc(F)cc(C(F)(F)F)c3)nc21` [Compound 49, 1-(4-fluorophenyl)-2-[3-fluoro-5-(trifluoromethyl)phenoxy]-9-methyl-1,9-dihydro-6H-purin-6-one], the negative-log IC50 (pIC50) at human capsaicin receptor was at least 7.00.

Consider `Cc1csc2c(=O)n(-c3ccc(Cl)cc3)c(Oc3ccc(F)c(F)c3F)nc12` [Compound 50, 3-(4-chlorophenyl)-7-methyl-2-(2,3,4-trifluorophenoxy)thieno[3,2-d]pyrimidin-4(3H)-one], for which the pIC50 on human capsaicin receptor was at least 7.00.

In the case of `Cc1csc2c(=O)n(-c3ccc(Cl)cc3)c(Oc3ccc(Cl)cc3F)nc12` [Compound 51, 2-(4-chloro-2-fluorophenoxy)-3-(4-chlorophenyl)-7-methylthieno[3,2-d]pyrimidin-4(3H)-one], the negative logarithm of the IC50 (pIC50) on human capsaicin receptor was at least 7.00.

As for `Cc1csc2c(=O)n(-c3ccc(Cl)cc3)c(Oc3ccc(F)cc3F)nc12` [Compound 52, 3-(4-chlorophenyl)-2-(2,4-difluorophenoxy)-7-methylthieno[3,2-d]pyrimidin-4(3H)-one], on human capsaicin receptor, the negative logarithm of the IC50 (pIC50) was at least 7.00.

With `Cc1csc2c(=O)n(-c3ccc(F)cc3)c(Oc3ccc(F)c(F)c3F)nc12` [Compound 53, 3-(4-fluorophenyl)-7-methyl-2-(2,3,4-trifluorophenoxy)thieno[3,2-d]pyrimidin-4(3H)-one], the pIC50 at human capsaicin receptor was at least 7.00.

Regarding `Cc1csc2c(=O)n(-c3ccc(F)cc3)c(Oc3ccc(Cl)cc3F)nc12` [Compound 54, 2-(4-chloro-2-fluorophenoxy)-3-(4-fluorophenyl)-7-methylthieno[3,2-d]pyrimidin-4(3H)-one], the negative-log IC50 (pIC50) on human capsaicin receptor is at least 7.00.

`Cc1csc2c(=O)n(-c3ccc(F)cc3)c(Oc3c(F)ccc(F)c3F)nc12` [Compound 55, 3-(4-fluorophenyl)-7-methyl-2-(2,3,6-trifluorophenoxy)thieno[3,2-d]pyrimidin-4(3H)-one]: the pIC50 on human capsaicin receptor was at least 7.00.

Regarding `Cc1cccc(Oc2nc3c(ncn3C)c(=O)n2-c2ccc(F)cc2)c1C` [Compound 63, 2-(2,3-dimethylphenoxy)-1-(4-fluorophenyl)-9-methyl-1,9-dihydro-6H-purin-6-one], the negative-log IC50 (pIC50) at human capsaicin receptor is at least 7.00.

A word on the pKi: it is the Ki on a negative log10 scale, so that one unit is a factor of ten. Take `Cl.Cl.Cl.Cl.Cl.Cl.N.N.N.N.N.N.N.N.N.N.N.N.N.N.[O-2].[O-2].[Ru+3].[Ru+3].[Ru+4]` [ruthenium red]: the negative-log Ki (pKi) on VR is at most 3.85.
